Data from ChEMBL document CHEMBL1151479, “Hypoxia-inducible factor-1 inhibitory benzofurans and chalcone-derived diels-alder adducts from Morus species” (J Nat Prod, 2009).

Key:
[1] = system: Hep 3B2; experiment: Inhibition of hypoxia-induced VEGF protein secretion in human Hep3B cells after 16 hrs by ELISA; format: functional, cell-based
[2] = target: Hypoxia inducible factors; HIF-1-alpha, HIF-2-alpha (Homo sapiens, UniProt Q16665+Q99814); experiment: Inhibition of hypoxia-induced HIF1 activation in human Hep3B cells by pGL3-HRE-luciferase reporter gene assay; format: cell-based; details: hep 3b2
[3] = Cytotoxicity against human Hep3B cells after 24 hrs by MTT assay; format: cell-based; details: hep 3b2, 24 h
[4] = system: Hep 3B2; experiment: Effect on luciferase activity in human Hep3B cells exposed to hypoxic condition for 16 hrs; format: functional, cell-based
[5] = system: Hep 3B2; experiment: Inhibition of luciferase expression in human Hep3B cells after 16 hrs under hypoxic condition; format: functional, cell-based

Structure (SMILES) | IC50 [1] [µM] | IC50 [2] [µM] | EC50 [4] [µM] | IC50 [5] [µM] | Activity [3]
Oc1cc(O)cc(-c2cc3ccc(O)cc3o2)c1 [MORACIN M] | > 50 | > 30 | – | – | –
CC(C)=CCc1c(O)ccc(C(=O)[C@H]2[C@@H](c3c(O)ccc(C(=O)/C=C/c4ccc(O)cc4)c3O)C=C(C)C[C@@H]2c2ccc(O)cc2)c1O | 7.84 | 9.54 | – | – | –
COc1c(O)cc2oc(-c3cc(O)cc(O)c3)cc2c1CC(=O)C(C)C [MORACIN Q] | 9.28 | > 30 | – | – | Dose-dependent effect
C[C@@]12C=C(c3c(O)cc(-c4cc5ccc(O)cc5o4)cc3O)C[C@@H](C1)c1ccc(O)cc1O2 [MULBERROFURAN H] | 15.4 | > 30 | – | – | Dose-dependent effect
CO[C@H]1/C=C\C=C(/C)C(=O)NC2=CC(=O)C(NCCN(C)C)=C(C[C@@H](C)C[C@H](OC)[C@H](O)[C@@H](C)/C=C(\C)[C@@H]1OC(N)=O)C2=O [ALVESPIMYCIN] | 0.0795 | > 30 | – | – | –
CC1(C)Oc2cc3oc(-c4cc(O)cc(O)c4)cc3cc2C[C@H]1O [MORACIN P] | 10.6 | > 30 | – | – | Dose-dependent effect
CC1=C[C@H]2c3c(O)cc(-c4cc5ccc(O)cc5o4)cc3O[C@@]3(c4ccc(O)cc4O)Oc4cc(O)ccc4[C@H](C1)[C@@H]23 [MULBERROFURAN G] | 28.6 | > 30 | – | – | –

Further lines, with some results ahead:

IC50 [1] [µM] | IC50 [2] [µM] | EC50 [4] [µM] | IC50 [5] [µM] | Structure (SMILES) | Activity [3]
3.2 | 8.26 | – | – | CC(C)=CC[C@]12Oc3cc(O)c([C@H]4C=C(C)C[C@H](c5ccc(O)cc5O)[C@H]4C(=O)c4ccc(O)cc4O)c(O)c3C(=O)[C@@]1(O)Oc1cc(O)ccc12 [SANGGENON C] | –
3.05 | 6.07 | – | – | CC(C)=CCC/C(C)=C\CC/C(C)=C\Cc1c(O)cc(O)cc1-c1cc2ccc(O)cc2o1 [MULBERROFURAN W] | –
2.17 | 8.76 | – | – | CC(C)=CCC/C(C)=C/Cc1c(O)ccc2cc(-c3cc(O)cc(O)c3CC=C(C)C)oc12 [MULBERROFURAN D] | Dose-dependent effect
2.62 | 6.27 | – | – | CC(C)=CCC/C(C)=C/Cc1c(O)cc(O)cc1-c1cc2ccc(O)cc2o1 [ALBAFURAN A] | Dose-dependent effect
7.22 | > 30 | 0.001 | 0.00179 | CC(C)(O)C1Cc2cc3cc(-c4cc(O)cc(O)c4)oc3cc2O1 (stereo not drawn) [MORACIN O] | Dose-dependent effect
2.08 | 8.75 | – | – | CC(C)=CC[C@@]12Oc3cc(O)c([C@H]4C=C(C)C[C@H](c5ccc(O)cc5O)[C@H]4C(=O)c4ccc(O)cc4O)c(O)c3C(=O)[C@]1(O)Oc1cc(O)ccc12 [SANGGENON O] | Dose-dependent effect
3.14 | 8.55 | – | – | CC(C)=CCc1c(O)ccc(C(=O)[C@H]2[C@@H](c3c(O)ccc(C(=O)/C=C/c4ccc(O)cc4O)c3O)C=C(C)C[C@@H]2c2ccc(O)cc2O)c1O | Dose-dependent effect
